Earlier results in patent US20100172972A1, “ENTERIC COATED PHARMACEUTICAL COMPOSITIONS” (priority 2007, published 2010).
Counter-ions that a name gives are not always drawn.

Experiments:
[1] = not given; remark: listed apart in the source

SMILES	drug in the dosage hydrolyzed to 1-naphthol (pH 1.0)	drug in the dosage degrades to 1-naphthol (pH 2.0, in one hour)	time for 10% degradation (pH 4.0)	solubility in water [1]
CNCC[C@H](Oc1cccc2ccccc12)c1cccs1 [Duloxetine hydrochloride]	50%	10%	up to 63 hours	–
CNCC[C@H](Oc1cccc2ccccc12)c1cccs1 [Duloxetine]	–	–	–	slightly soluble in water
